In US20260335272A1, “SAGERINIC ACID AND COMPOSITIONS CONTAINING SAME, FOR USE IN THE PREVENTION AND/OR TREATMENT OF SENESCENCE-RELATED DISORDERS IN A HUMAN OR ANIMAL” (A2P SCIENCES, priority 2022, published 2026):

Experiments:
[1] = Protein deglycating activity: release of benzoic acid from 1-phenyl-1,2-propanedione (PPD), HPLC; conditions: for Activity (protein deglycating activity): 0.25% (w/V) product, 0.375% (w/V) PPD, 37 °C, 24 hours, phosphate buffer pH 7.4-methanol 50/50, benzoic acid by HPLC at 229 nm
Experimental: The test products in 0.25% (w/V) solution are left in contact with a 0.375% (w/V) solution of 1-phenyl-1,2-propanedione (PPD) for 24 hours at 37 °C. An HPLC dosing, at 229 nm after passage through an Ascentis® Express C18 column, was carried out at TO and again after 24 hours so as to determine the benzoic acid content. Calculating the percentage of pmol of benzoic acid/μmol of PPD in the reaction medium determines the activity of the deglycants.
Dissolve 0.178 g monopotassium phosphate and 0.955 g dibasic sodium phosphate dihydrate in 100 ml purified water. The pH is adjusted if necessary.
A mixture is made with 50 ml phosphate buffer pH 7.4 and 50 ml methanol.
A solution of exactly 0.375% (w/V) PPD is made in the mixture buffer phosphate pH 7.4—methanol (50/50).
A solution of approximately 0.25% (w/V) of the product to be tested is made in the mixture buffer phosphate pH 7.4—methanol (50/50).
Product to be tested: Alagebrium chloride (MedChem Express, ref. HY-106024B), Sagerinic acid (prepared according to example 5.1.).
A stock solution of approximately 0.08% (w/V) benzoic acid is made in ethyl alcohol. This solution is diluted 1:10 (V/V) in purified water (D).
(D) is then diluted 1:5, 2:5, 3:5 and 4:5 (V/V) in purified water. (D1, D2, D3 and D4).
A linear calibration line was established: area of the benzoic acid peak, with a retention time of 9.17 min and observed at 229 nm, as a function of the concentration in % (w/V).
(§1) A series of hermetically sealed pillboxes are filled with:
Stir after each addition.
0.05 ml is taken from each pillbox to measure the benzoic acid content at TO. The pillboxes are resealed and placed in an oven at 37 °C for a minimum of 21 to a maximum of 24 hours.
The same volume will be taken for dosing on leaving the oven.
The time at 37 °C must be exactly the same for the control and all the tests, so they are prepared as they go along.
The 0.05 ml samples are diluted 1:5 (V/V) in purified water, i.e. by adding 0.2 ml. […]
The % of pmol of benzoic acid/μmol of PPD in the reaction medium is calculated: • TT0×10000×100/122.12×12.655 […]

[2] = DPPH free radical elimination (anti-radical / oxidative stress effect); format: physicochemical; conditions: for Activity (elimination of DPPH free radical): antioxidant solution 0.0007% (ascorbic acid in ethyl alcohol, sagerinic acid in water), 0.15 ml in 4.5 ml, phosphate buffer pH 7, 5 min, OD at 519 nm
Experimental: The principle of the method for assessing the effect of sagerinic acid compared to ascorbic acid as a reference molecule is based on the elimination of a stable free radical, the 2,2-Diphenyl-1-picrylhydrazyl (DPPH Sigma Aldrich ref D9132).
Dissolve 0.177 g monopotassium phosphate and 0.730 g dibasic sodium phosphate dihydrate in 50 ml purified water. The pH is adjusted if necessary.
A solution of exactly 0.0027% (w/V) DPPH in methanol is made.
A solution of exactly 0.1% (w/V) ascorbic acid (Riedel-de-Haen, ref.33034) is made in ethyl alcohol. This solution is diluted to 0.0007% (V/V) in ethyl alcohol.
A solution of exactly 0.1% (w/V) sagerinic acid (prepared according to example 5.1.) is made in water. This solution is diluted to 0.0007% (V/V) in water.
as §1
For the sample and the blank: • After addition, stir for 5 min on a magnetic stirrer • Add 4 ml toluene • Stir for 30 seconds with a magnetic stirrer • Allow to settle for 20 seconds to 1 minute (if necessary) • Recover the organic phase from the top using an automatic pipette, taking care not to recover any aqueous phase • Read the OD of the organic phase using a spectrophotometer at 519 nm

SIRT1 = target: T1, SIRT1 (Homo sapiens, UniProt Q96EB6); assay: SIRT1 Inhibitor/Activator screening kit (ab283377), fluorimetric sirtuin-1 activation; format: biochemical; conditions: for Activity (activation of sirtuin-1): 2.28% (w/V) activator in DMSO diluted 1:250 in DTT buffer, 25 μl, 37 °C, 30-60 min, Ex/Em=400/505 nm
T1 construct: fluorogenic deacetylation assay
T1 sequence (Q96EB6 1-747): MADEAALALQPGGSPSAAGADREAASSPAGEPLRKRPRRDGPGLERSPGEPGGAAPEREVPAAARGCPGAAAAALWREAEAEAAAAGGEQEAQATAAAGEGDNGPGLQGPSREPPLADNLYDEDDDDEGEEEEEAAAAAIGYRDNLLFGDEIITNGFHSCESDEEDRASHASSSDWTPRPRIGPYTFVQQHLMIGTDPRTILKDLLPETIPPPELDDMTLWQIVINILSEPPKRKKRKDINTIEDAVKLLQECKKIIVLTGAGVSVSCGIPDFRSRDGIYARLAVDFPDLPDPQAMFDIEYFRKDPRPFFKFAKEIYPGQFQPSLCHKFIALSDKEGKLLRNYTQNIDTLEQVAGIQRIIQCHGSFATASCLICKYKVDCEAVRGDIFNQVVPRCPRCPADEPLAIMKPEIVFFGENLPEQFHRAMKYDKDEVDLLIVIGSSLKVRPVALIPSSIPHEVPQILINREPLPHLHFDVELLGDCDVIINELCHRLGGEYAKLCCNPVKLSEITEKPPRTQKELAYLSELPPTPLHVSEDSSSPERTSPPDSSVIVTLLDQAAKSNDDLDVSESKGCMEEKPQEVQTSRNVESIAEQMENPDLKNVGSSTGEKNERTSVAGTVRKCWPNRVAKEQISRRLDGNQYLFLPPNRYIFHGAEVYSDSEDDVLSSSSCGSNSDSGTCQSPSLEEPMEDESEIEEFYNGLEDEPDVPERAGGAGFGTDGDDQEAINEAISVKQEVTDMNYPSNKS
Source text: The SIRT1 Inhibitor/Activator screening kit deacetylates the substrate with SIRT1, followed by cleavage of the deacetylated substrate to release the fluorescent group, which is detected by fluorimetry at Ex/Em=400/505 nm.
The SIRT1 activator enhances the SIRT1 activity resulting in a higher fluorescent signal compared to the control. This kit provides a rapid, simple, sensitive and reliable test, suitable for high-throughput screening of SIRT1 activators.
• Solutions of the kit: Reference ab283377 (Abeam) • Buffer • Substrate • SIRT1 • NAD • DTT • DMSO Réference 34869 (Honeywell Riedel-de-Haen)
A solution of exactly 2.28% (w/V) activator (resveratrol (Sigma Aldrich, ref.R5010) and sagerinic acid prepared according to example 5.1.) is made in DMSO. Dilute to 1:250 in the DTT buffer solution.
Preparation of the enzyme solution: Make the following additions to 3 separate wells:
• 1. To the SIRT1 enzyme solution wells, add: • 25 μl of undiluted activator solution (2.28% solution) in a well as activator control (AC) • 25 μl of DTT-free buffer in a well as an enzyme control (EC) • 25 μl of diluted activator solution as assay (S) • 2. In another well, add 50 μl of DTT-free buffer as a blank control (without enzyme). • 3. Mix well and incubate the plaque for 5 minutes at 37 °C
Preparation of the substrate: After incubation, make the following additions to each well:
Mix and incubate at 37 °C for 30-60 min.
Mix well and incubate for 10 min at 37 °C, protected from light.
Read the fluorescence (Ex/Em=400/505 nm).
The activation of sirtuin-1 by sagerinic acid was compared with that of resveratrol as a reference molecule.

Collagenase = Collagenase activity kit (Sigma Aldrich MAK293, FALGPA substrate), anti-collagenase activity; format: biochemical; conditions: vs reference molecule hamamelitannin
Experimental: A collagenase activity analysis kit (Sigma Aldrich MAK293) is used. The kit allows to screen collagenase inhibitors by measuring collagenase activity using a synthetic peptide (FALGPA) that mimics the structure of the collagen.
• Solutions of the kit: Reference MAK293-1KT (Sigma Aldrich) • Collagenase buffer (MAK293A-KC) • Collagenase solution (MAK293B-KC) • Collagenase substrate (MAK293C-KC) • Pharmethyl 96° ethyl alcohol, Reference 11371014 (Cristalco) • Purified water
A solution is made of exactly 1% (w/V) hamamelitannin (Extrasynthesis ref. 0958) in ethyl alcohol.
A solution of exactly 1% (w/V) sagerinic acid (prepared according to example 5.1.) is made in purified water.
as §1
• After addition, stir quickly by hand • Place in an oven at 37 °C for 30 minutes • Add 1.6 mL of purified water. Mix well. • Read the DO: Sample against blank, spectrophotometer at 345 nm.
The anti-collagenase activity of sagerinic acid was compared with that of hamamelitannin as a reference molecule.
In absolute values: Y=[(DOBlank 2−DOTest)−(DOBlank 1−DOcontrol)]/(DOBlank 1−DOcontrol)]×100

Row | Structure (SMILES) | Activity (protein deglycating activity) [1] | Activity (elimination of DPPH free radical) [2] | Activity (activation of sirtuin-1) (SIRT1) | effect on sirtuin activation (in words) (SIRT1) | effect in eliminating free radicals relative to ascorbic acid ([2]; vs ascorbic acid) | protein deglycating activity (in words) [1] | inhibitory effect on proteases (collagenases) relative to hamamelitannin (Collagenase)
1 | Cc1sc[n+](CC(=O)c2ccccc2)c1C [Alagebrium, reference compound] | 28.79 arbitrary dimensionless unit | – | – | – | – | – | –
2 | O=C1O[C@H]([C@@H](O)CO)C(O)=C1O [Ascorbic acid, ascorbic acid, reference compound] | – | 5.26 arbitrary dimensionless unit | – | – | – | – | –
3 | Oc1ccc(C=Cc2cc(O)cc(O)c2)cc1 [Resveratrol, resveratrol, reference compound] | – | – | 80.54 arbitrary dimensionless unit | – | – | – | –
4 | O=C(O[C@H](Cc1ccc(O)c(O)c1)C(=O)O)C1C(c2ccc(O)c(O)c2)C(C(=O)O[C@H](Cc2ccc(O)c(O)c2)C(=O)O)C1c1ccc(O)c(O)c1 (stereo partly shown) [Sagerinic acid] | 16.78 arbitrary dimensionless unit | 9.70 arbitrary dimensionless unit | 26.56 arbitrary dimensionless unit | good effect on sirtuin activation | almost twice the effect of ascorbic acid | good protein deglycating activity | more than 2 times
